Source: patent US9695155B2, “Herbicidal substituted pyrimidinyloxy benzene compounds” (E. I. DU PONT DE NEMOURS AND COMPANY, priority 2013, dated 2017)

Experiments:
sedge, umbrella = test: Test B flooded paddy test; assay type: in vivo, Cyperus difformis; conditions: Flood, 250 g ai/ha; 0 to 100 scale where 0 is no effect and 100 is complete control
How it was run: (§1)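 Flooded to 3 cm at the 2-leaf stage, pots received compound through the paddy water and were kept at that depth under greenhouse conditions. After 13–15 days, effect was rated by eye relative to controls, 0 = none and 100 = complete control.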

velvetleaf = test: Test C postemergence; assay type: in vivo, Abutilon theophrasti; conditions: for Plant response rating (0 to 100), Velvetleaf: 125 g ai/ha, postemergence; for Plant response rating, Velvetleaf: Postemergence, scale 0 to 100 (0 no effect, 100 complete control)
How it was run: (§2)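 Whole-plant greenhouse test with surfactant-containing solvent formulation, applied preemergence to sown loam–sand pots or postemergence to 2–18 cm plants. Scored by eye 13 to 15 days on, 0–100 scale.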

pigweed [1] = test: Test A postemergence; assay type: in vivo, Amaranthus retroflexus; conditions: 0 to 100 scale where 0 is no effect and 100 is complete control
How it was run: (§3)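 Visual injury scored 0–100 (100 = complete control) against untreated controls about 10 days after treatment in a greenhouse. Test chemicals, formulated with surfactant in non-phytotoxic solvent, were sprayed on soil preemergence or on 2-10 cm, one- to two-leaf plants postemergence.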

giant foxtail = test: Test A postemergence; assay type: in vivo, Setaria faberii; conditions: 0 to 100 scale where 0 is no effect and 100 is complete control
How it was run: as §3

barnyardgrass [2] = test: Test A postemergence; assay type: in vivo, Echinochloa crus-galli; conditions: 0 to 100 scale where 0 is no effect and 100 is complete control
How it was run: as §3

rice = test: Test B flooded paddy test; assay type: in vivo, Oryza sativa; conditions: Flood, 250 g ai/ha; 0 to 100 scale where 0 is no effect and 100 is complete control
How it was run: as §1

barnyardgrass [3] = test: Test A preemergence; assay type: in vivo, Echinochloa crus-galli; conditions: for Plant response rating, Barnyardgrass: 125 g ai/ha, 0 to 100 scale where 0 is no effect and 100 is complete control; for Barnyardgrass plant response rating: 500 g ai/ha, 0 to 100 scale, 0 no effect, 100 complete control, approx. 10 days
How it was run: as §3

wheat [4] = test: Test A preemergence; assay type: in vivo, Triticum aestivum; conditions: 125 g ai/ha, 0 to 100 scale where 0 is no effect and 100 is complete control
How it was run: as §3

corn [5] = test: Test A preemergence; assay type: in vivo, Zea mays; conditions: for Plant response rating, Corn: 125 g ai/ha, 0 to 100 scale where 0 is no effect and 100 is complete control; for Corn plant response rating: 500 g ai/ha, 0 to 100 scale, 0 no effect, 100 complete control, approx. 10 days
How it was run: as §3

pigweed [6] = test: Test A preemergence; assay type: in vivo, Amaranthus retroflexus; conditions: for Plant response rating, Pigweed: 125 g ai/ha, 0 to 100 scale where 0 is no effect and 100 is complete control; for Pigweed plant response rating: 500 g ai/ha, 0 to 100 scale, 0 no effect, 100 complete control, approx. 10 days
How it was run: as §3

kochia = test: Test C postemergence; assay type: in vivo, Kochia scoparia; conditions: for Kochia plant response rating: 16 g ai/ha, visual rating; for Kochia plant response rating / Plant response rating (0 to 100), Kochia: postemergence; for Kochia plant response rating / Plant response rating, Kochia: scale 0 to 100 (0 no effect, 100 complete control); for Plant response rating (0 to 100), Kochia: 125 g ai/ha; for Plant response rating, Kochia: Postemergence
How it was run: as §2

wheat [7] = test: Test A postemergence; assay type: in vivo, Triticum aestivum; conditions: 0 to 100 scale where 0 is no effect and 100 is complete control
How it was run: as §3

pigweed [8] = test: Test C postemergence; assay type: in vivo, Amaranthus retroflexus; conditions: for Plant response rating (0 to 100), Pigweed: 125 g ai/ha, postemergence; for Plant response rating, Pigweed: Postemergence, scale 0 to 100 (0 no effect, 100 complete control)
How it was run: as §2

Heteranthera limosa = test: Test B flooded paddy test; assay type: in vivo; conditions: Flood, 250 g ai/ha; 0 to 100 scale where 0 is no effect and 100 is complete control
How it was run: as §1

galium = test: Test C postemergence; assay type: in vivo, Galium aparine; conditions: for Galium plant response rating: 16 g ai/ha, visual rating; for Galium plant response rating / Plant response rating (0 to 100), Galium: postemergence; for Galium plant response rating / Plant response rating, Galium: scale 0 to 100 (0 no effect, 100 complete control); for Plant response rating (0 to 100), Galium: 125 g ai/ha; for Plant response rating, Galium: Postemergence
How it was run: as §2

barnyardgrass [9] = test: Test C postemergence; assay type: in vivo, Echinochloa crus-galli; conditions: for Barnyardgrass plant response rating: 16 g ai/ha, visual rating; for Barnyardgrass plant response rating / Plant response rating (0 to 100), Barnyardgrass: postemergence; for Barnyardgrass plant response rating / Plant response rating, Barnyardgrass: scale 0 to 100 (0 no effect, 100 complete control); for Plant response rating (0 to 100), Barnyardgrass: 125 g ai/ha; for Plant response rating, Barnyardgrass: Postemergence
How it was run: as §2

corn [10] = test: Test A postemergence; assay type: in vivo, Zea mays; conditions: 0 to 100 scale where 0 is no effect and 100 is complete control
How it was run: as §3

Structure (SMILES) | Plant response rating, Sedge, Umbrella (sedge, umbrella) | Plant response rating (0 to 100), Velvetleaf (velvetleaf) | Plant response rating, Velvetleaf (velvetleaf; 31 g ai/ha, 13 to 15 days) | Plant response rating, Velvetleaf (velvetleaf; 62 g ai/ha) | Plant response rating, Pigweed (pigweed [1]; 500 g ai/ha) | Plant response rating, Foxtail, Giant (giant foxtail; 125 g ai/ha) | Plant response rating, Foxtail, Giant (giant foxtail; 500 g ai/ha) | Plant response rating, Barnyardgrass (barnyardgrass [2]; 125 g ai/ha) | Plant response rating, Barnyardgrass (barnyardgrass [2]; 500 g ai/ha) | Plant response rating, Rice (rice) | Plant response rating, Barnyardgrass (barnyardgrass [3]) | Barnyardgrass plant response rating (barnyardgrass [3]) | Plant response rating, Wheat (wheat [4]) | Plant response rating, Corn (corn [5]) | Corn plant response rating (corn [5]) | Plant response rating, Pigweed (pigweed [6]) | Pigweed plant response rating (pigweed [6]) | Kochia plant response rating (kochia; 13 to 15 days) | Plant response rating (0 to 100), Kochia (kochia) | Plant response rating, Kochia (kochia; 31 g ai/ha, 13 to 15 days) | also measured
N#Cc1cccc(Oc2ncc(Cl)cn2)c1-n1cc(OC(F)F)cn1 [Compound 97] | 90 | 70 | 40 | 75 | 100 | 90 | 90 | 90 | 100 | 0 | 80 | 100 | 0 | 40 | 60 | 100 | 100 | 80 | 100 | 90 | Plant response rating, Pigweed (pigweed [1]; 125 g ai/ha): 100; Plant response rating, Kochia (kochia; 62 g ai/ha): 95; Plant response rating, Wheat (wheat [7]; 125 g ai/ha): 50; Plant response rating, Wheat (wheat [7]; 500 g ai/ha): 70; Plant response rating (0 to 100), Pigweed (pigweed [8]): 95; Plant response rating, Pigweed (pigweed [8]; 31 g ai/ha, 13 to 15 days): 85; Plant response rating, Pigweed (pigweed [8]; 62 g ai/ha): 85; Plant response rating, Ducksalad (Heteranthera limosa): 95; Galium plant response rating (galium; 13 to 15 days): 55; Plant response rating (0 to 100), Galium (galium): 90; Plant response rating, Galium (galium; 31 g ai/ha, 13 to 15 days): 75; Plant response rating, Galium (galium; 62 g ai/ha): 85; Barnyardgrass plant response rating (barnyardgrass [9]; 13 to 15 days): 10; Plant response rating (0 to 100), Barnyardgrass (barnyardgrass [9]): 15; Plant response rating, Barnyardgrass (barnyardgrass [9]; 31 g ai/ha, 13 to 15 days): 10; Plant response rating, Barnyardgrass (barnyardgrass [9]; 62 g ai/ha): 10; Plant response rating, Corn (corn [10]; 125 g ai/ha): 60; Plant response rating, Corn (corn [10]; 500 g ai/ha): 90
FC(F)Oc1cnn(-c2ccccc2Oc2ncc(Cl)cn2)c1 [Compound 98] | 85 | 90 | 50 | 70 | 100 | 80 | 90 | 80 | 90 | 15 | 50 | 100 | 0 | 0 | 10 | 100 | 100 | 70 | 98 | 80 | Plant response rating, Kochia (kochia; 62 g ai/ha): 90; Plant response rating, Wheat (wheat [7]; 500 g ai/ha): 60; Plant response rating (0 to 100), Pigweed (pigweed [8]): 75; Plant response rating, Pigweed (pigweed [8]; 31 g ai/ha, 13 to 15 days): 75; Plant response rating, Pigweed (pigweed [8]; 62 g ai/ha): 75; Plant response rating, Ducksalad (Heteranthera limosa): 85; Galium plant response rating (galium; 13 to 15 days): 50; Plant response rating (0 to 100), Galium (galium): 80; Plant response rating, Galium (galium; 31 g ai/ha, 13 to 15 days): 60; Plant response rating, Galium (galium; 62 g ai/ha): 75; Barnyardgrass plant response rating (barnyardgrass [9]; 13 to 15 days): 5; Plant response rating (0 to 100), Barnyardgrass (barnyardgrass [9]): 15; Plant response rating, Barnyardgrass (barnyardgrass [9]; 31 g ai/ha, 13 to 15 days): 5; Plant response rating, Barnyardgrass (barnyardgrass [9]; 62 g ai/ha): 10; Plant response rating, Corn (corn [10]; 125 g ai/ha): 40; Plant response rating, Corn (corn [10]; 500 g ai/ha): 70
